Measurements from PubChem BioAssay AID248 (DTP/NCI, 2004).
Several values for one entry are separate records, joined by “and”; a condition that tells them apart may be missing. Equal entries are not always repeated. Inconclusive results and toxic doses are left out.

Test system: L1210 leukemia ip in BDF1 mice, survival T/C
Test: NCI In Vivo Anticancer Drug Screen. Data for tumor model L1210 Leukemia (intraperitoneal) in B6D2F1 (BDF1) mice
Conditions: endpoint: mean survival time, higher = longer survival
How it was run: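 Read-out is survival time, reported as the treated-group measurement over the vehicle-control measurement.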

[1] = dose: 100.0 mg/kg/injection, schedule: Q01DX001 (ip), vehicle: carboxymethylcellulose (CMC)
[2] = dose: 400.0 mg/kg/injection, schedule: Q01DX001 (ip), vehicle: carboxymethylcellulose (CMC)
[3] = dose: 100.0 mg/kg/injection, schedule: Q01DX009 (ip), vehicle: Klucel (hydroxypropylcellulose) (HPC)
[4] = dose: 200.0 mg/kg/injection, schedule: Q01DX009 (ip), vehicle: Klucel (hydroxypropylcellulose) (HPC)
[5] = dose: 100.0 mg/kg/injection, schedule: Q04DX003 (ip), vehicle: saline with Tween-80
[6] = dose: 200.0 mg/kg/injection, schedule: Q04DX003 (ip), vehicle: saline with Tween-80
[7] = dose: 400.0 mg/kg/injection, schedule: Q04DX003 (ip), vehicle: saline with Tween-80
[8] = dose: 100.0 mg/kg/injection, schedule: Q04DX003 (ip), vehicle: Klucel (hydroxypropylcellulose) (HPC)
[9] = dose: 200.0 mg/kg/injection, schedule: Q04DX003 (ip), vehicle: Klucel (hydroxypropylcellulose) (HPC)
[10] = dose: 50.0 mg/kg/injection, schedule: Q01DX009 (ip), vehicle: Klucel (hydroxypropylcellulose) (HPC)
[11] = dose: 75.0 mg/kg/injection, schedule: Q01DX001 (ip), vehicle: saline
[12] = dose: 12.5 mg/kg/injection, schedule: Q01DX009 (ip), vehicle: Klucel (hydroxypropylcellulose) (HPC)
[13] = dose: 25.0 mg/kg/injection, schedule: Q01DX009 (ip), vehicle: Klucel (hydroxypropylcellulose) (HPC)

For N#CC1c2ccccc2CCN1C(=O)c1ccccc1 (centres undefined), the T/C [1] was 98 % of control, the T/C (dose: 200.0 mg/kg/injection, schedule: Q01DX001 (ip), vehicle: carboxymethylcellulose (CMC)) was 98 % of control and the T/C [2] was 93 % of control.
With O=C(Nc1cc([N+](=O)[O-])ccc1O)c1ccc(Cl)c(Cl)c1 the T/C [3] was 104 % of control, the T/C [4] was 95 % of control and the T/C (dose: 400.0 mg/kg/injection, schedule: Q01DX009 (ip), vehicle: Klucel (hydroxypropylcellulose) (HPC)) was 93 % of control.
With CN1C(=O)CC(/C=C\[N+](=O)[O-])c2ccccc21 (centres undefined) the T/C [1] was 94 % of control and the T/C [2] was 104 % of control.
In the case of CCCCCCCC(=O)Nc1cccc(OC(=O)NC)c1, the T/C [5] is reported as 98 % of control, the T/C [6] is reported as 94 % of control and the T/C [7] is reported as 96 % of control.
With [Cl][Pt+2][Cl].c1ccc(C2CC[N-]CC2)cc1.c1ccc(C2CC[N-]CC2)cc1 the T/C (dose: 6.25 mg/kg/injection, schedule: Q04DX003 (ip), vehicle: water) was 100 % of control, the T/C (dose: 12.5 mg/kg/injection, schedule: Q04DX003 (ip), vehicle: water) was 100 % of control and the T/C (dose: 25.0 mg/kg/injection, schedule: Q04DX003 (ip), vehicle: water) was 105 % of control. For the same compound, the T/C (dose: 50.0 mg/kg/injection, schedule: Q04DX003 (ip), vehicle: water) was 102 % of control.
NC(=O)c1ccc(NC(=O)CCC(=O)Nc2ccc(C(N)=O)cn2)nc1 was tested, and the T/C (dose: 0.36 mg/kg/injection, schedule: Q01DX Z (ip), vehicle: carboxymethylcellulose (CMC)) was 105 % of control, the T/C (dose: 0.55 mg/kg/injection, schedule: Q01DX Z (ip), vehicle: carboxymethylcellulose (CMC)) was 102 % of control and the T/C (dose: 0.83 mg/kg/injection, schedule: Q01DX Z (ip), vehicle: carboxymethylcellulose (CMC)) was 102 % of control. For the same compound, the T/C (dose: 1.0 mg/kg/injection, schedule: Q01DX Z (ip), vehicle: carboxymethylcellulose (CMC)) was 105 % of control, the T/C (dose: 1.25 mg/kg/injection, schedule: Q01DX Z (ip), vehicle: carboxymethylcellulose (CMC)) was 103 % of control and 114 % of control and the T/C (dose: 2.0 mg/kg/injection, schedule: Q01DX Z (ip), vehicle: carboxymethylcellulose (CMC)) was 107 % of control. The T/C (dose: 2.5 mg/kg/injection, schedule: Q01DX Z (ip), vehicle: carboxymethylcellulose (CMC)) was 110 % of control, the T/C (dose: 3.0 mg/kg/injection, schedule: Q01DX Z (ip), vehicle: carboxymethylcellulose (CMC)) was 95 % of control and the T/C (dose: 4.0 mg/kg/injection, schedule: Q01DX Z (ip), vehicle: carboxymethylcellulose (CMC)) was 104 % of control. The T/C (dose: 5.0 mg/kg/injection, schedule: Q01DX Z (ip), vehicle: carboxymethylcellulose (CMC)) was 124 % of control and 91 % of control and the T/C (dose: 10.0 mg/kg/injection, schedule: Q01DX Z (ip), vehicle: carboxymethylcellulose (CMC)) was 118 % of control.
NNC(=O)CCc1ccccc1Br was tested, and the T/C [5] was 99 % of control and the T/C [6] was 92 % of control.
For CN(C)/C(=C\C(=O)c1ccccc1)c1ccccc1, the T/C [5] was 90 % of control and the T/C [7] was 86 % of control.
Nc1ccc(C(=O)N/N=C/c2ccc(Cl)cc2Cl)cc1 was tested, and the T/C (dose: 100.0 mg/kg/injection, schedule: Q04DX002 (ip), vehicle: Klucel (hydroxypropylcellulose) (HPC)) was 93 % of control and the T/C (dose: 200.0 mg/kg/injection, schedule: Q04DX002 (ip), vehicle: Klucel (hydroxypropylcellulose) (HPC)) was 93 % of control.
In the case of NC(=Nc1ccc([N+](=O)[O-])cc1)c1ccc(C(N)=Nc2ccc([N+](=O)[O-])cc2)cc1, the T/C (dose: 6.25 mg/kg/injection, schedule: Q01DX015 (ip), vehicle: methylcellulose (MC)) is reported as 102 % of control, the T/C (dose: 12.5 mg/kg/injection, schedule: Q01DX015 (ip), vehicle: methylcellulose (MC)) is reported as 100 % of control and the T/C (dose: 25.0 mg/kg/injection, schedule: Q01DX015 (ip), vehicle: methylcellulose (MC)) is reported as 96 % of control. The T/C (dose: 50.0 mg/kg/injection, schedule: Q01DX015 (ip), vehicle: methylcellulose (MC)) was 93 % of control and the T/C (dose: 62.5 mg/kg/injection, schedule: Q01DX015 (ip), vehicle: methylcellulose (MC)) was 90 % of control.
Cc1ccc(NC(=O)C(Cl)(Cl)Cl)cc1C was tested, and the T/C [8] was 93 % of control, the T/C [9] was 101 % of control and the T/C (dose: 400.0 mg/kg/injection, schedule: Q04DX003 (ip), vehicle: Klucel (hydroxypropylcellulose) (HPC)) was 90 % of control.
COC(=O)c1ccccc1NC(=O)Nc1ccccc1Cl was tested, and the T/C [10] was 88 % of control, the T/C [3] was 88 % of control and the T/C [8] was 89 % of control. The T/C [9] was 92 % of control.
In the case of CC1(C)CC(N=Cc2ccccc2O)CC(C)(C)N1O.CC1(C)CC(N=Cc2ccccc2O)CC(C)(C)N1O.[Co], the T/C [5] is reported as 89 % of control and the T/C [6] is reported as 92 % of control.
With C/C=C/Sc1ccccc1 the T/C (dose: 75.0 mg/kg/injection, schedule: Q01DX001 (ip), vehicle: carboxymethylcellulose (CMC)) was 95 % of control, the T/C (dose: 150.0 mg/kg/injection, schedule: Q01DX001 (ip), vehicle: carboxymethylcellulose (CMC)) was 101 % of control and the T/C (dose: 300.0 mg/kg/injection, schedule: Q01DX001 (ip), vehicle: carboxymethylcellulose (CMC)) was 98 % of control.
In the case of C[n+]1cccc(S(=O)(=O)[O-])c1, the T/C (dose: 100.0 mg/kg/injection, schedule: Q04DX003 (ip), vehicle: saline) is reported as 104 % of control, the T/C (dose: 200.0 mg/kg/injection, schedule: Q04DX003 (ip), vehicle: saline) is reported as 101 % of control and the T/C (dose: 400.0 mg/kg/injection, schedule: Q04DX003 (ip), vehicle: saline) is reported as 101 % of control.
For [O]=[Sb]([OH])([c]1ccc(Cl)cc1)[c]1ccc(Cl)cc1, the T/C [11] was 116 % of control.
For COc1cccc(CN(C)C)c1C(C)(C)O, the T/C (dose: 50.0 mg/kg/injection, schedule: Q01DX001 (ip), vehicle: saline) was 97 % of control and the T/C (dose: 100.0 mg/kg/injection, schedule: Q01DX001 (ip), vehicle: saline) was 95 % of control.
Cc1cc(C)c(C(=O)Oc2ccc3ccccc3c2)c(C)c1 was tested, and the T/C [5] was 92 % of control, the T/C [6] was 92 % of control and the T/C [7] was 86 % of control.
CS(=O)(=O)OCCCCCCCCOS(C)(=O)=O was tested, and the T/C (dose: 3.0 mg/kg/injection, schedule: Q01DX009 (ip), vehicle: Klucel (hydroxypropylcellulose) (HPC)) was 100 % of control, the T/C (dose: 5.0 mg/kg/injection, schedule: Q01DX009 (ip), vehicle: Klucel (hydroxypropylcellulose) (HPC)) was 102 % of control and the T/C (dose: 11.0 mg/kg/injection, schedule: Q01DX009 (ip), vehicle: Klucel (hydroxypropylcellulose) (HPC)) was 118 % of control. For the same compound, the T/C [12] was 108 % of control, the T/C [13] was 114 % of control and the T/C (dose: 25.0 mg/kg/injection, schedule: Q04DX003 (ip), vehicle: Klucel (hydroxypropylcellulose) (HPC)) was 112 % of control. The T/C (dose: 37.5 mg/kg/injection, schedule: Q01DX009 (ip), vehicle: Klucel (hydroxypropylcellulose) (HPC)) was 163 % of control, the T/C [10] was 93 % of control and the T/C (dose: 50.0 mg/kg/injection, schedule: Q04DX003 (ip), vehicle: Klucel (hydroxypropylcellulose) (HPC)) was 116 % of control. The T/C [8] was 116 % of control.
For N#Cc1ccc(NC(=O)COc2cccc(Cl)c2)cc1, the T/C (dose: 37.5 mg/kg/injection, schedule: Q01DX001 (ip), vehicle: saline with Tween-80) was 95 % of control and the T/C (dose: 150.0 mg/kg/injection, schedule: Q01DX001 (ip), vehicle: saline with Tween-80) was 92 % of control.
In the case of Nc1nc(Cl)[nH]c(=O)n1, the T/C (dose: 12.5 mg/kg/injection, schedule: Q01DX001 (ip), vehicle: Klucel (hydroxypropylcellulose) (HPC)) is reported as 105 % of control, the T/C (dose: 25.0 mg/kg/injection, schedule: Q01DX001 (ip), vehicle: Klucel (hydroxypropylcellulose) (HPC)) is reported as 97 % of control and the T/C (dose: 50.0 mg/kg/injection, schedule: Q01DX001 (ip), vehicle: Klucel (hydroxypropylcellulose) (HPC)) is reported as 100 % of control.
For C=CS(=O)(=O)CCN(C)C, the T/C (dose: 100.0 mg/kg/injection, schedule: Q04DX002 (ip), vehicle: saline) was 94 % of control, the T/C (dose: 200.0 mg/kg/injection, schedule: Q04DX002 (ip), vehicle: saline) was 90 % of control and the T/C (dose: 400.0 mg/kg/injection, schedule: Q04DX002 (ip), vehicle: saline) was 94 % of control.
CCOC(=O)C(=N\Nc1ccc(C)cc1C)/C(C)=N\NC(N)=S was tested, and the T/C [11] was 105 % of control.
CC1=CC(c2ccccc2O)C(=C(C)C)CC1 (centres undefined) was tested, and the T/C [10] was 96 % of control, the T/C [3] was 93 % of control and the T/C [4] was 89 % of control.
In the case of CC1CCC(C2=CSC3CCCCC3N2)C(C)C1 (centres undefined), the T/C (dose: 100.0 mg/kg/injection, schedule: Q04DX002 (ip), vehicle: other) is reported as 111 % of control, the T/C (dose: 200.0 mg/kg/injection, schedule: Q04DX002 (ip), vehicle: other) is reported as 101 % of control and the T/C (dose: 400.0 mg/kg/injection, schedule: Q04DX002 (ip), vehicle: other) is reported as 97 % of control.
For CCCCCCCCCCCCC(=O)OC, the T/C [5] was 101 % of control, the T/C [6] was 96 % of control and the T/C [7] was 98 % of control.
In the case of Cc1cccc(C)c1NC(=S)NC1CC(C)CC(C)(C)C1 (centres undefined), the T/C [12] is reported as 100 % of control, the T/C [13] is reported as 109 % of control and the T/C [10] is reported as 96 % of control.
